This is an account of results in patent US11981686B2, “Urea compound having substituent” (DAIICHI SANKYO COMPANY, LIMITED, priority 2019, dated 2024).

Sequence of SIRT6 enzyme (Q8N6T7 whole entry, species assumed): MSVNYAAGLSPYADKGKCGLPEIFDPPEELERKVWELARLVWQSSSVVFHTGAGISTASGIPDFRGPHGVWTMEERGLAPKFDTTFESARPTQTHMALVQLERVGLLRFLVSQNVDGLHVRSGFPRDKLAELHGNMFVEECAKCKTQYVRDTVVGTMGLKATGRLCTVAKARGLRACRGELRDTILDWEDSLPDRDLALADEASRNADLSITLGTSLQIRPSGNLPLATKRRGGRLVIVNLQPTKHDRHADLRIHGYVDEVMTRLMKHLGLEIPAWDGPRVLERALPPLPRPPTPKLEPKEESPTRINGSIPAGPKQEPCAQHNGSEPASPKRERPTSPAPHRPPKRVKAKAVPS

This experiment addresses SIRT6 enzyme (Homo sapiens, UniProt Q8N6T7). Kind of experiment: Measurement of deacetylation activity (SIRT6, AlphaLISA, H3K9(Ac) peptide). The format is biochemical. The note with it: SIRT6 25 ng/mL, H3K9(Ac) biotin peptide 2 nM, NAD 10 μM, room temperature 30 minutes, duplicate. Summed up:
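Activation read as EC150, the concentration giving 150% activity relative to enzyme/no-enzyme DMSO controls, via variable-slope fit. Deacetylation of 2 nM biotinylated H3K9(Ac) peptide with 10 μM NAD+ by 25 ng/mL SIRT6 ran 30 min at room temperature, pH 8.0, then AlphaLISA detection of unmodified H3K9.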
In general terms: In Alpha technology, singlet oxygen from a donor bead excites a nearby acceptor bead.
Take `CNC(=O)Nc1nc2c(s1)C1CN(C(=O)OC)CC(C2)N1c1nc(C23CC(C(F)F)(C2)C3)no1` (centres unmarked) [Example 135, Methyl 10-{3-[3-(difluoromethyl)bicyclo[1.1.1]pentan-1-yl]-1,2,4-oxadiazol-5-yl}-2-[(methylcarbamoyl)amino]-4,7,8,9-tetrahydro-4,8-epimino[1,3]thiazolo[5,4-d]azocine-6(5H)-carboxylate]: the “EC150 (the concentration of the compound showing a relative enzyme activity of 150%)” value was 2.1 μm.

With `C[C@H](CO)NC(=O)Nc1nc2c(s1)C1COCC(C2)N1c1nc(-c2ccc(F)cc2)no1` (stereo partly drawn) [Example 18, N-{10-[3-(4-fluorophenyl)-1,2,4-oxadiazol-5-yl]-4,7,8,9-tetrahydro-5H-4,8-epiminooxocino[5,4-d][1,3]thiazol-2-yl}-N′-[(2R)-1-hydroxypropan-2-yl]urea], the “EC150 (the concentration of the compound showing a relative enzyme activity of 150%)” value was found to be 0.95 μm.

`CNC(=O)Nc1nc2c(s1)[C@@H]1COC[C@H](C2)N1c1nnc(-c2cccc(OC(F)F)c2)o1` [Example 22, N-[(4S,8S)-10-{5-[3-(difluoromethoxy)phenyl]-1,3,4-oxadiazol-2-yl}-4,7,8,9-tetrahydro-5H-4,8-epiminooxocino[5,4-d][1,3]thiazol-2-yl]-N′-methylurea]: the “EC150 (the concentration of the compound showing a relative enzyme activity of 150%)” value came out at 1.3 μm.

Consider `CNC(=O)Nc1nc2c(s1)C1CN(C(C)=O)CC(C2)N1c1ncc(-c2cccc(OC)n2)o1` (centres unmarked) [Example 129, N-{6-acetyl-10-[5-(6-methoxypyridin-2-yl)-1,3-oxazol-2-yl]-4,5,6,7,8,9-hexahydro-4,8-epimino[1,3]thiazolo[5,4-d]azocin-2-yl}-N′-methylurea], for which the “EC150 (the concentration of the compound showing a relative enzyme activity of 150%)” value is on record as 0.38 μm.

Take `COc1cccc(-c2cc(N3[C@@H]4COC[C@H]3c3sc(NC(=O)N[C@@H]5CCOC5)nc3C4)no2)c1` [Example 164, N-{(4S,8S)-10-[5-(3-methoxyphenyl)-1,2-oxazol-3-yl]-4,7,8,9-tetrahydro-5H-4,8-epiminooxocino[5,4-d][1,3]thiazol-2-yl}-N′-[(3R)-oxolan-3-yl]urea]: the “EC150 (the concentration of the compound showing a relative enzyme activity of 150%)” value came to 2.6 μm.

Take `CC(=O)N1CC[C@@H](NC(=O)Nc2nc3c(s2)[C@@H]2COC[C@H](C3)N2c2ncc(-c3cccc(OC(F)F)n3)o2)C1` [Example 182, N-[(3R)-1-acetylpyrrolidin-3-yl]-N′-[(4S,8S)-10-{5-[6-(difluoromethoxy)pyridin-2-yl]-1,3-oxazol-2-yl}-4,7,8,9-tetrahydro-5H-4,8-epiminooxocino[5,4-d][1,3]thiazol-2-yl]urea]: the “EC150 (the concentration of the compound showing a relative enzyme activity of 150%)” value was 0.16 μm.

Take `O=C(NCc1ccnc(O)c1)Nc1nc2c(s1)[C@@H]1COC[C@H](C2)N1c1ncc(-c2cccc(OC(F)F)n2)o1` [Example 177, N-[(4S,8S)-10-{5-[6-(difluoromethoxy)pyridin-2-yl]-1,3-oxazol-2-yl}-4,7,8,9-tetrahydro-5H-4,8-epiminooxocino[5,4-d][1,3]thiazol-2-yl]-N′-[(2-hydroxypyridin-4-yl)methyl]urea]: the “EC150 (the concentration of the compound showing a relative enzyme activity of 150%)” value is recorded as 0.28 μm.

On to `COc1ccc2oc(N3[C@@H]4COC[C@H]3c3sc(NC(=O)NCC(C)(C)O)nc3C4)nc2c1` [Example 46, N-(2-hydroxy-2-methylpropyl)-N′-[(4S,8S)-10-(5-methoxy-1,3-benzoxazol-2-yl)-4,7,8,9-tetrahydro-5H-4,8-epiminooxocino[5,4-d][1,3]thiazol-2-yl]urea], for which the “EC150 (the concentration of the compound showing a relative enzyme activity of 150%)” value was found to be 2.1 μm.

With `O=C(Nc1nc2c(s1)[C@@H]1COC[C@H](C2)N1c1cc(-c2ccc(F)cc2)on1)NC1CCOCC1` [Example 161, N-{(4S,8S)-10-[5-(4-fluorophenyl)-1,2-oxazol-3-yl]-4,7,8,9-tetrahydro-5H-4,8-epiminooxocino[5,4-d][1,3]thiazol-2-yl}-N′-oxan-4-ylurea], the “EC150 (the concentration of the compound showing a relative enzyme activity of 150%)” value was 0.97 μm.

For the molecule `CNC(=O)Nc1nc2c(s1)[C@@H]1COC[C@H](C2)N1c1nc2cc(C)ccc2o1` [Example 49, N-methyl-N′-[(4S,8S)-10-(5-methyl-1,3-benzoxazol-2-yl)-4,7,8,9-tetrahydro-5H-4,8-epiminooxocino[5,4-d][1,3]thiazol-2-yl]urea], the “EC150 (the concentration of the compound showing a relative enzyme activity of 150%)” value was 1.5 μm.

In the case of `O=C(NCCOCCO)Nc1nc2c(s1)CN(c1nc(C3CCC(F)(F)CC3)no1)CC2` [Example 34, N-{5-[3-(4,4-difluorocyclohexyl)-1,2,4-oxadiazol-5-yl]-4,5,6,7-tetrahydro[1,3]thiazolo[5,4-c]pyridin-2-yl}-N′-[2-(2-hydroxyethoxy)ethyl]urea], the “EC150 (the concentration of the compound showing a relative enzyme activity of 150%)” value is 1.9 μm.

Take `CCOc1cccc(-c2cnc(N3[C@@H]4COC[C@H]3c3sc(NC(=O)NCC(C)(C)O)nc3C4)o2)n1` [Example 79, N-{(4S,8S)-10-[5-(6-ethoxypyridin-2-yl)-1,3-oxazol-2-yl]-4,7,8,9-tetrahydro-5H-4,8-epiminooxocino[5,4-d][1,3]thiazol-2-yl}-N′-(2-hydroxy-2-methylpropyl)urea]: the “EC150 (the concentration of the compound showing a relative enzyme activity of 150%)” value was 1.2 μm.

With `CNC(=O)Nc1nc2c(s1)[C@@H]1COC[C@H](C2)N1c1nc2cc(OC)ccc2o1` [Example 48, N-[(4S,8S)-10-(5-methoxy-1,3-benzoxazol-2-yl)-4,7,8,9-tetrahydro-5H-4,8-epiminooxocino[5,4-d][1,3]thiazol-2-yl]-N′-methylurea], the “EC150 (the concentration of the compound showing a relative enzyme activity of 150%)” value came to 1.2 μm.

With `O=C(Nc1nc2c(s1)C1COCC(C2)N1c1nnc(-c2cccc(OC(F)F)c2)o1)N[C@H]1CCOC1` (stereo partly drawn) [Example 115, N-(10-{5-[3-(difluoromethoxy)phenyl]-1,3,4-oxadiazol-2-yl}-4,7,8,9-tetrahydro-5H-4,8-epiminooxocino[5,4-d][1,3]thiazol-2-yl)-N′-[(3S)-oxolan-3-yl]urea], the “EC150 (the concentration of the compound showing a relative enzyme activity of 150%)” value is 2 μm.

For `C[C@@H](CO)NC(=O)Nc1nc2c(s1)[C@@H]1COC[C@H](C2)N1c1ncc(-c2cccc(OC(F)F)c2)o1` [Example 173, N-[(4S,8S)-10-{5-[3-(difluoromethoxy)phenyl]-1,3-oxazol-2-yl}-4,7,8,9-tetrahydro-5H-4,8-epiminooxocino[5,4-d][1,3]thiazol-2-yl]-N′-[(2S)-1-hydroxypropan-2-yl]urea], the “EC150 (the concentration of the compound showing a relative enzyme activity of 150%)” value amounted to 0.62 μm.

Turning to `CNC(=O)Nc1nc2c(s1)[C@@H]1COC[C@H](C2)N1c1ncc(-c2cccc(OC)n2)o1` [Example 15, N-{(4S,8S)-10-[5-(6-methoxypyridin-2-yl)-1,3-oxazol-2-yl]-4,7,8,9-tetrahydro-5H-4,8-epiminooxocino[5,4-d][1,3]thiazol-2-yl}-N′-methylurea], the “EC150 (the concentration of the compound showing a relative enzyme activity of 150%)” value is listed as 1.1 μm.

Turning to `COc1cc2nc(N3[C@@H]4COC[C@H]3c3sc(NC(=O)N[C@@H]5CCOC5)nc3C4)oc2cc1C` [Example 45, N-[(4S,8S)-10-(5-methoxy-6-methyl-1,3-benzoxazol-2-yl)-4,7,8,9-tetrahydro-5H-4,8-epiminooxocino[5,4-d][1,3]thiazol-2-yl]-N′-[(3R)-oxolan-3-yl]urea], the “EC150 (the concentration of the compound showing a relative enzyme activity of 150%)” value was found to be 0.79 μm.

`CNC(=O)Nc1nc2c(s1)[C@@H]1COC[C@H](C2)N1c1nc(C2CCC(F)(F)CC2)no1` [Example 7, N-{(4S,8S)-10-[3-(4,4-difluorocyclohexyl)-1,2,4-oxadiazol-5-yl]-4,7,8,9-tetrahydro-5H-4,8-epiminooxocino[5,4-d][1,3]thiazol-2-yl}-N′-methylurea]: the “EC150 (the concentration of the compound showing a relative enzyme activity of 150%)” value was determined as 5.7 μm.

For the molecule `CN(C)c1ccc2oc(N3[C@@H]4COC[C@H]3c3sc(NC(=O)NCC(C)(C)O)nc3C4)nc2c1` [Example 41, N-{(4S,8S)-10-[5-(dimethylamino)-1,3-benzoxazol-2-yl]-4,7,8,9-tetrahydro-5H-4,8-epiminooxocino[5,4-d][1,3]thiazol-2-yl}-N′-(2-hydroxy-2-methylpropyl)urea], the “EC150 (the concentration of the compound showing a relative enzyme activity of 150%)” value was determined as 2.5 μm.

Regarding `C[C@@H](O)CNC(=O)Nc1nc2c(s1)C1COCC(C2)N1c1nc(-c2ccc(F)cc2)no1` (stereo partly drawn) [Example 82, N-{10-[3-(4-fluorophenyl)-1,2,4-oxadiazol-5-yl]-4,7,8,9-tetrahydro-5H-4,8-epiminooxocino[5,4-d][1,3]thiazol-2-yl}-N′-[(2R)-2-hydroxypropyl]urea], the “EC150 (the concentration of the compound showing a relative enzyme activity of 150%)” value is listed as 1.7 μm.

For the molecule `CC(C)(O)CNC(=O)Nc1nc2c(s1)CN(c1nc(C3(C(F)(F)F)CC3)no1)CC2` [Example 92, N-(2-hydroxy-2-methylpropyl)-N′-(5-{3-[1-(trifluoromethyl)cyclopropyl]-1,2,4-oxadiazol-5-yl}-4,5,6,7-tetrahydro[1,3]thiazolo[5,4-c]pyridin-2-yl)urea], the “EC150 (the concentration of the compound showing a relative enzyme activity of 150%)” value was 3.5 μm.

On to `CNC(=O)Nc1nc2c(s1)C1CCC(C2)N1c1cc(-c2ccc(F)cc2)on1` (centres unmarked) [Example 11, N-{9-[5-(4-fluorophenyl)-1,2-oxazol-3-yl]-5,6,7,8-tetrahydro-4H-5,8-epiminocyclohepta[d][1,3]thiazol-2-yl}-N′-methylurea], for which the “EC150 (the concentration of the compound showing a relative enzyme activity of 150%)” value came out at 4.3 μm.

For `O=C(Nc1nc2c(s1)[C@@H]1COC[C@H](C2)N1c1ncc(-c2cccc(C(F)F)c2)o1)N[C@H]1C[C@H](O)C1` [Example 166, N-(10-{5-[3-(difluoromethyl)phenyl]-1,3-oxazol-2-yl}-4,7,8,9-tetrahydro-5H-4,8-epiminooxocino[5,4-d][1,3]thiazol-2-yl)-N′-[(1r,3r)-3-hydroxycyclobutyl]urea], the “EC150 (the concentration of the compound showing a relative enzyme activity of 150%)” value is on record as 0.21 μm.
